In patent publication US8993756B2 (Merck Sharp & Dohme Corp., priority 2011, dated 2015):

How the values were obtained:
JAK3 = JAK3 (Homo sapiens (Human), UniProt P52333); assay: Jak Biochemical HTRF Assay (JAK3); conditions: recombinant GST-tagged catalytic domain, [ATP] 2.9 μM
Method: (§1) Biological Assays Jak Biochemical HTRF Assay Protocol
The ability of compounds to inhibit the activity of JAK1, JAK2, JAK3, and Tyk2 was measured using a recombinant purified GST-tagged catalytic domain for each enzyme (Invitrogen JAK1 #M4290, JAK2 #M4290, JAK3 #M4290, Tyk2 #M4290) in an HTRF format biochemical assay. […] Subsequent reagent additions employed an Agilent Bravo. […] After equilibration, 2 μL of 10×ATP in 1× assay buffer was added to initiate the kinase reaction and the plates were shaken and then incubated at room temperature for 120 minutes. At the end of the incubation, 20 μL of 2× stop buffer (streptavidin-Dylight 650 (Thermo #84547B100 mL), Eu-tagged pY20 antibody (Perkin Elmer #AD0067), EDTA, HEPES, and Triton) was added to quench the reaction. […] After normalization to untreated controls, the percent inhibition of the HTRF signal at each compound concentration was calculated. The plot of percent inhibition versus the log of compound concentration was fit with a 4-parameter dose response equation to calculate IC50 values.

JAK2 = JAK2 (Homo sapiens (Human), UniProt O60674); assay: Jak Biochemical HTRF Assay (JAK2); conditions: recombinant GST-tagged catalytic domain, [ATP] 8.5 μM
Method: as §1
The ability of compounds to inhibit the activity of JAK1, JAK2, JAK3, and Tyk2 was measured using a recombinant purified GST-tagged catalytic domain for each enzyme (Invitrogen JAK1 #M4290, JAK2 #M4290, JAK3 #M4290, Tyk2 #M4290) in an HTRF format biochemical assay. […] The basic assay protocol is as follows: First, 250 nL of diluted compounds in DMSO were dispensed into the wells of a dry 384-well Black plate (Greiner #781076) using a Labcyte Echo 555 acoustic dispenser. Subsequent reagent additions employed an Agilent Bravo. Next, 18 μL of 1.11× enzyme and 1.11× substrate in 1× assay buffer (Invitrogen kinase buffer # PV3189, 2 mM DTT, 0.05% BSA) were added to the wells and shaken and then preincubated for 30 minutes at room temperature to allow compound binding to equilibrate. After equilibration, 2 μL of 10×ATP in 1× assay buffer was added to initiate the kinase reaction and the plates were shaken and then incubated at room temperature for 120 minutes. At the end of the incubation, 20 μL of 2× stop buffer (streptavidin-Dylight 650 (Thermo #84547B100 mL), Eu-tagged pY20 antibody (Perkin Elmer #AD0067), EDTA, HEPES, and Triton) was added to quench the reaction. Plates were shaken and centrifuged and then incubated 60 minutes at room temperature and then read on a Perkin Elmer Envision (λex=337 nm, λem=665 and 615 nm, TRF delay time=20 μs). HTRF signal=10,000*665 nm reading 615 nm reading. After normalization to untreated controls, the percent inhibition of the HTRF signal at each compound concentration was calculated. The plot of percent inhibition versus the log of compound concentration was fit with a 4-parameter dose response equation to calculate IC50 values.

Chain of JAK2 (O60674 849-1124): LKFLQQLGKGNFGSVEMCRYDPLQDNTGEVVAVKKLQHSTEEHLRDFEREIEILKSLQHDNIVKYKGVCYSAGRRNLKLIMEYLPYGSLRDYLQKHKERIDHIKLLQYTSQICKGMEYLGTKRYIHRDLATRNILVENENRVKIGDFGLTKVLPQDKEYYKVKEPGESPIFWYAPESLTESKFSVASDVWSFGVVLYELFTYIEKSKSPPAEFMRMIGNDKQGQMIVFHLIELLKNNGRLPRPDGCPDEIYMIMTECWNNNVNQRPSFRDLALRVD
Chain of JAK3 (P52333 822-1111): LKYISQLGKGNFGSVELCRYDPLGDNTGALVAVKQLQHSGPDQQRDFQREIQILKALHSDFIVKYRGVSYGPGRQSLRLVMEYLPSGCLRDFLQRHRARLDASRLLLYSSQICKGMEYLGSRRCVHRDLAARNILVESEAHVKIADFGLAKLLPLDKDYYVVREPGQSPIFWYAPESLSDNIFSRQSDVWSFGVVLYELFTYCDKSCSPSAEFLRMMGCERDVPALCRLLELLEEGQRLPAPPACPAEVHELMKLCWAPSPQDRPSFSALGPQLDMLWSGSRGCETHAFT

| IC50 (JAK3; given as range class) [nM] | IC50 (JAK2; given as range class) [nM] | IC50 (JAK3) [nM] | IC50 (JAK2) [nM] | SMILES |
| --- | --- | --- | --- | --- |
| 10 to 500 | > 500 | – | – | CCOC(=O)c1c[nH]c2ncnc(-c3cccc(-c4nc(Br)ns4)c3)c12 [Example 7-3, ethyl 4-(3-(3-bromo-1,2,4-thiadiazol-5-yl)phenyl)-7H-pyrrolo[2,3-d]pyrimidine-5-carboxylate] |
| 10 to 500 | > 500 | – | – | CCOC(=O)c1c[nH]c2ncnc(-c3ccc(OC)nc3)c12 [Example 1-93, ethyl 4-(6-methoxypyridin-3-yl)-7H-pyrrolo[2,3-d]pyrimidine-5-carboxylate] |
| – | – | 8.3 | > 1500 | C/C=C\C(=O)Nc1cccc(-c2ncnc3[nH]cc(C(=O)OCC)c23)c1 [Example 5-9, ethyl 4-{3-[(2Z)-but-2-enoylamino]phenyl}-7H-pyrrolo[2,3-d]pyrimidine-5-carboxylate] |
| 10 to 500 | > 500 | – | – | CCOC(=O)c1c[nH]c2ncnc(-c3ccc4c(c3)CN(C(=O)OC(C)(C)C)CC4)c12 [Example 1-78, tert-butyl 7-[5-(ethoxycarbonyl)-7H-pyrrolo[2,3-d]pyrimidin-4-yl]-3,4-dihydroisoquinoline-2(1H)-carboxylate] |
| 10 to 500 | > 500 | – | – | CCOC(=O)c1c[nH]c2ncnc(-c3cccc(-c4nc(C#N)ns4)c3)c12 [Example 7-4, Ethyl 4-(3-(cyano-1,2,4-thiadiazol-5-yl)phenyl)-7H-pyrrolo[2,3-d]pyrimidine-5-carboxylate] |
| – | – | 2 | > 1500 | C=C(C)C(=O)Nc1cccc(-c2ncnc3[nH]cc(C(=O)OC)c23)c1 [Example 11-2, methyl 4-{3-[(2-methylacryloyl)amino]phenyl}-7H-pyrrolo[2,3-d]pyrimidine-5-carboxylate] |
| 10 to 500 | > 500 | – | – | CCOC(=O)c1c[nH]c2ncnc(-c3cccc(Nc4nc(C#N)ns4)c3)c12 [Example 6-4, ethyl 4-{3-[(3-cyano-1,2,4-thiadiazol-5-yl)amino]phenyl}-7H-pyrrolo[2,3-d]pyrimidine-5-carboxylate] |
| 10 to 500 | > 500 | – | – | C=C(C)S(=O)(=O)Nc1cccc(-c2ncnc3[nH]cc(C(=O)OCC)c23)c1 [Example 10-3, ethyl 4-(3-{[(1-methylethenyl)sulfonyl]amino}phenyl)-7H-pyrrolo[2,3-d]pyrimidine-5-carboxylate] |
| – | – | 6 | 62 | CCOC(=O)c1c[nH]c2ncnc(C3=CCCCC3)c12 [Example 1-23, ethyl 4-cyclohex-1-en-1-yl-7H-pyrrolo[2,3-d]pyrimidine-5-carboxylate] |
| – | – | 1.9 | > 1500 | CCOC(=O)c1c[nH]c2ncnc(-c3cccc(NC(=O)/C=C(/C)C(F)(F)F)c3)c12 [Example 5-34, ethyl 4-(3-{[(2Z)-4,4,4-trifluoro-3-methylbut-2-enoyl]amino}phenyl)-7H-pyrrolo[2,3-d]pyrimidine-5-carboxylate] |
| – | – | 9.7 | 137 | CCOC(=O)c1c[nH]c2ncnc(-c3ccc4cc[nH]c4c3)c12 [Example 1-83, ethyl 4-(1H-indol-6-yl)-7H-pyrrolo[2,3-d]pyrimidine-5-carboxylate] |
| 10 to 500 | 10 to 500 | – | – | CCOC(=O)c1c[nH]c2ncnc(-c3ccc(C)cc3)c12 [Example 1-37, ethyl 4-(4-methylphenyl)-7H-pyrrolo[2,3-d]pyrimidine-5-carboxylate] |
| – | – | 2 | > 1500 | CCOC(=O)c1c[nH]c2ncnc(-c3cccc(NC(=O)/C=C/c4ccncc4)c3)c12 [Example 5-17, ethyl 4-(3-{[(2E)-3-pyridin-4-ylprop-2-enoyl]amino}phenyl)-7H-pyrrolo[2,3-d]pyrimidine-5-carboxylate] |
| – | – | 0.4 | > 1500 | C=C(C)C(=O)Nc1cc(-c2ncnc3[nH]cc(C(=O)OC)c23)ccc1F [Example 11-1, Methyl 4-{4-fluoro-3-[(2-methylacryloyl)amino]phenyl}-7H-pyrrolo[2,3-d]pyrimidine-5-carboxylate] |
| 10 to 500 | > 500 | – | – | CCOC(=O)c1c[nH]c2ncnc(-c3ccc(C)c(NCC(F)(F)F)c3)c12 [Example 3-2, ethyl 4-{4-methyl-3-[(2,2,2-trifluoroethyl)amino]phenyl}-7H-pyrrolo[2,3-d]pyrimidine-5-carboxylate] |
| 10 to 500 | > 500 | – | – | CCOC(=O)c1c[nH]c2ncnc(-c3cccc(NC(=O)c4c[nH]c(=O)[nH]c4=O)c3)c12 [Example 5-18, ethyl 4-(3-{[(2,4-dioxo-1,2,3,4-tetrahydropyrimidin-5-yl)carbonyl]amino}phenyl)-7H-pyrrolo[2,3-d]pyrimidine-5-carboxylate] |
| 10 to 500 | > 500 | – | – | C=C(C)C(=O)Nc1cccc(-c2ncnc3[nH]cc(-c4ccc(CN)cc4)c23)c1 [Example 19, N-(3-{5-[4-(Aminomethyl)phenyl]-7H-pyrrolo[2,3-d]pyrimidin-4-yl}phenyl)-2-methylprop-2-enamide] |
| – | – | 0.013 | > 1500 | C=C(F)C(=O)Nc1cc(-c2ncnc3[nH]cc(C(=O)OCC)c23)ccc1F [Example 5-10, ethyl 4-{4-fluoro-3-[(2-fluoroacryloyl)amino]phenyl}-7H-pyrrolo[2,3-d]pyrimidine-5-carboxylate] |
| 10 to 500 | > 500 | – | – | CCOC(=O)c1c[nH]c2ncnc(-c3cccc(NC(=O)/C=C/c4cccnc4)c3)c12 [Example 5-30, ethyl 4-(3-{[(2E)-3-pyridin-3-ylprop-2-enoyl]amino}phenyl)-7H-pyrrolo[2,3-d]pyrimidine-5-carboxylate] |
| 10 to 500 | > 500 | – | – | CCOC(=O)c1c[nH]c2ncnc(-c3cccc(N)c3)c12 [Example 1-3, Ethyl 4-(3-aminophenyl)-7H-pyrrolo[2,3-d]pyrimidine-5-carboxylate] |
| 10 to 500 | > 500 | – | – | CCOC(=O)c1c[nH]c2ncnc(-c3cnn(CCOC)c3)c12 [Example 1-99, ethyl 4-[1-(2-methoxyethyl)-1H-pyrazol-4-yl]-7H-pyrrolo[2,3-d]pyrimidine-5-carboxylate] |
| 10 to 500 | 10 to 500 | – | – | COc1ccccc1-c1c[nH]c2ncnc(-c3cn[nH]c3)c12 [Example 33-6, 5-(2-methoxyphenyl)-4-(1H-pyrazol-4-yl)-7H-pyrrolo[2,3-d]pyrimidine] |
| – | – | 5.2 | > 1500 | C=C(C)C(=O)Nc1cccc(-c2ncnc3[nH]cc(-c4ccccc4C)c23)c1 [Example 20-6, 2-methyl-N-{3-[5-(2-methylphenyl)-7H-pyrrolo[2,3-d]pyrimidin-4-yl]phenyll}prop-2-enamide] |
| – | – | 1.5 | > 1500 | C=C(C)C(=O)Nc1cccc(-c2ncnc3[nH]cc(-c4ccc(F)cc4)c23)c1 [Example 20-4, N-{3-[5-(4-fluorophenyl)-7H-pyrrolo[2,3-d]pyrimidin-4-yl]phenyl}-2-methylprop-2-enamide] |
| 10 to 500 | > 500 | – | – | CCOC(=O)c1c[nH]c2ncnc(-c3ccc(C#N)cc3)c12 [Example 1-10, ethyl 4-(4-cyanophenyl)-7H-pyrrolo[2,3-d]pyrimidine-5-carboxylate] |
| 10 to 500 | > 500 | – | – | CCOC(=O)c1c[nH]c2ncnc(-c3cncc(CO)c3)c12 [Example 1-106, ethyl 4-[5-(hydroxymethyl)pyridin-3-yl]-7H-pyrrolo[2,3-d]pyrimidine-5-carboxylate] |
| – | – | 0.47 | > 1500 | C=C(C)C(=O)Nc1cc(-c2ncnc3[nH]cc(C(=O)OCC)c23)c[nH]c1=O [Example 4-33, ethyl 4-{5-[(2-methylacryloyl)amino]-6-oxo-1,6-dihydropyridin-3-yl}-7H-pyrrolo[2,3-d]pyrimidine-5-carboxylate] |
| 10 to 500 | > 500 | – | – | CCOC(=O)c1c[nH]c2ncnc(-c3cccc(NC(=O)CCC(C)=O)c3)c12 [Example 5-7, ethyl 4-{3-[(4-oxopentanoyl)amino]phenyl}-7H-pyrrolo[2,3-d]pyrimidine-5-carboxylate] |
| 10 to 500 | > 500 | – | – | CCOC(=O)c1c[nH]c2ncnc(-c3cccc(NC(=O)C=C4CCCC4)c3)c12 [Example 5-37, ethyl 4-{3-[(cyclopentylideneacetyl)amino]phenyl}-7H-pyrrolo[2,3-d]pyrimidine-5-carboxylate] |
